Measurements: US10654895B2, “Polypeptide, DNA molecule encoding the polypeptide, vector, preparation method and use” (WUHAN MORE BIOTECHNOLOGY CO., LTD., priority 2013, dated 2020)
No end group written: not given here.

What was measured:
[1] = tested on: Escherichia coli (E. coli) ATCC25922; details: >25 means greater than or equal to 50 μg/mL
[2] = tested on: Staphylococcus aureus (RA) ATCC25923; details: for MIC: Staphylococcus aureus (RA) ATCC25923, >25 means greater than or equal to 50 μg/mL; for inhibitory effect / antiseptic activity in words: against Staphylococcus aureus (RA) ATCC25923 and/or Escherichia coli ATCC25922

Row | Substance | MIC [1] | MIC [2] | inhibitory effect / antiseptic activity in words [2]
1 | FRIARLLRIF [Ctryamp polypeptide mutant 9, FRIARLLRIF] | 6.25 µg/mL | 12.5 µg/mL | 
2 | RIARLLRIFFIRIARLLRIF [Ctryamp polypeptide mutant 29] | >25 µg/mL | >25 µg/mL | 
3 | FFIRIARLLRIF [Ctryamp polypeptide mutant 21, FFIRIARLLRIF] | 25 µg/mL | 12.5 µg/mL | 
4 | Ac-FIRIARLLRIF [Ctryamp polypeptide mutant 32, Ac-FIRIARLLRIF] | 25 µg/mL | 6.25 µg/mL | still have the antiseptic activity
5 | RIFFIRIARLLRIF [Ctryamp polypeptide mutant 23, RIFFIRIARLLRIF] | 12.5 µg/mL | 12.5 µg/mL | 
6 | FIRIARLLRKIF [Ctryamp polypeptide mutant 17, FIRIARLLRKIF] | 12.5 µg/mL | 6.25 µg/mL | 
7 | IRIARLLRIFFIRIARLLRIF [Ctryamp polypeptide mutant 30] | >25 µg/mL | >25 µg/mL | 
8 | LRIFFIRIARLLRIF [Ctryamp polypeptide mutant 24, LRIFFIRIARLLRIF] | >25 µg/mL | 25 µg/mL | 
9 | GFIRIARLLRIF [Ctryamp polypeptide mutant 16, GFIRIARLLRIF] | 6.25 µg/mL | 6.25 µg/mL | 
10 | RLLRIFFIRIARLLRIF [Ctryamp polypeptide mutant 26, RLLRIFFIRIARLLRIF] | >25 µg/mL | >25 µg/mL | 
11 | FIRIARLRIF [Ctryamp polypeptide mutant 8, FIRIARLRIF] | 12.5 µg/mL | 25 µg/mL | 
12 | FIRLRIF [Ctryamp polypeptide mutant 14, FIRLRIF] | >25 µg/mL | >25 µg/mL | 
13 | FIRIARLLRIFFIRIARLLRIF [Ctryamp polypeptide mutant 31] | >25 µg/mL | >25 µg/mL | 
14 | FIRARLLRIF [Ctryamp polypeptide mutant 10, FIRARLLRIF] | >25 µg/mL | >25 µg/mL | 
15 | FIRIARLLKRIF [Ctryamp polypeptide mutant 18, FIRIARLLKRIF] | 12.5 µg/mL | 6.25 µg/mL | 
16 | IFFIRIARLLRIF [Ctryamp polypeptide mutant 22, IFFIRIARLLRIF] | >25 µg/mL | 12.5 µg/mL | 
17 | LLRIFFIRIARLLRIF [Ctryamp polypeptide mutant 25, LLRIFFIRIARLLRIF] | >25 µg/mL | 25 µg/mL | 
18 | FIRRLLRIF [Ctryamp polypeptide mutant 12, FIRRLLRIF] | 25 µg/mL | 12.5 µg/mL | 
19 | FIKIGKLLKIF [Ctryamp polypeptide mutant 6, FIKIGKLLKIF] | 12.5 µg/mL | 25 µg/mL | 
20 | RLLRIF [Ctryamp polypeptide mutant 15, RLLRIF] | >25 µg/mL | >25 µg/mL | 
21 | FIRIARLLEIF [Ctryamp polypeptide mutant 1, FIRIARLLEIF] | >25 µg/mL | >25 µg/mL | no antiseptic activity
22 | FIKRIARLLRIF [Ctryamp polypeptide mutant 20, FIKRIARLLRIF] | 6.25 µg/mL | 6.25 µg/mL | 
23 | FIRKIARLLRIF [Ctryamp polypeptide mutant 19, FIRKIARLLRIF] | 6.25 µg/mL | 6.25 µg/mL | 
24 | ARLLRIFFIRIARLLRIF [Ctryamp polypeptide mutant 27, ARLLRIFFIRIARLLRIF] | >25 µg/mL | >25 µg/mL | 
25 | FIRIARLLIF [Ctryamp polypeptide mutant 11, FIRIARLLIF] | >25 µg/mL | >25 µg/mL | 
26 | IARLLRIFFIRIARLLRIF [Ctryamp polypeptide mutant 28, IARLLRIFFIRIARLLRIF] | >25 µg/mL | >25 µg/mL | 
